Results as given in the NIST ThermoML archive (doi:10.1016/j.fluid.2014.09.014).

Experiment: refractive index (other wavelength) (dimensionless); xn = mol fraction of the nth substance listed
Conditions: 101 kPa, Liquid, Standard Abbe refractometry

CC(C)OC(C)C [diisopropyl ether] + CC(C)O
refractive index
Conditions	Wavelength=404.7 nm	Wavelength=435.8 nm	Wavelength=486.1 nm	Wavelength=546.1 nm	Wavelength=587.6 nm	Wavelength=589.3 nm	Wavelength=632.8 nm	Wavelength=644 nm	Wavelength=706.5 nm
298.15 K, x1 = 0.0277	–	–	–	–	–	1.37492	1.3736	1.37329	1.37183
298.15 K, x1 = 0.0507	–	–	–	–	–	1.37483	1.37352	1.37322	1.37174
298.15 K, x1 = 0.051	–	–	–	–	–	1.37489	1.37358	1.37327	1.37179
298.15 K, x1 = 0.0717	–	–	–	–	–	1.37462	1.37331	1.373	1.37152
298.15 K, x1 = 0.1528	–	–	–	–	–	1.37401	1.3727	1.3724	1.37093
298.15 K, x1 = 0.1553	–	–	–	–	–	1.37401	1.3727	1.3724	1.37093
298.15 K, x1 = 0.1938	–	–	–	–	–	1.37373	1.37243	1.37213	1.37068
298.15 K, x1 = 0.2029	–	–	–	–	–	1.37346	1.37215	1.37185	1.37039
298.15 K, x1 = 0.245	–	–	–	–	–	1.37306	1.37177	1.37147	1.37002
298.15 K, x1 = 0.297	–	–	–	–	–	1.37259	1.3713	1.371	1.36955
298.15 K, x1 = 0.2973	–	–	–	–	–	1.37284	1.37156	1.37126	1.3698
298.15 K, x1 = 0.3068	–	–	–	–	–	1.37238	1.37108	1.37078	1.36933
298.15 K, x1 = 0.398	–	–	–	–	–	1.37122	1.36993	1.36964	1.36819
298.15 K, x1 = 0.4609	–	–	–	–	–	1.37063	1.36933	1.36903	1.36758
298.15 K, x1 = 0.5434	–	–	–	–	1.36987	1.36981	1.36853	1.36823	1.36678
298.15 K, x1 = 0.6032	–	–	–	–	1.3693	1.36925	1.36797	1.36767	1.36623
298.15 K, x1 = 0.6371	–	–	–	–	1.36894	1.36889	1.36762	1.36731	1.36587
298.15 K, x1 = 0.701	–	–	–	–	1.36828	1.36823	1.36695	1.36666	1.36523
298.15 K, x1 = 0.754	–	–	–	–	1.36792	1.36786	1.36659	1.36629	1.36485
298.15 K, x1 = 0.791	–	–	–	–	1.36756	1.3675	1.36623	1.36593	1.3645
298.15 K, x1 = 0.8296	–	–	–	–	1.36723	1.36717	1.36589	1.36559	1.36417
298.15 K, x1 = 0.8864	–	–	–	–	1.367	1.36695	1.36567	1.36537	1.36394
298.15 K, x1 = 0.8903	–	–	–	–	1.36659	1.36653	1.36526	1.36497	1.36354
298.15 K, x1 = 0.9113	–	–	–	–	1.3667	1.36631	1.36504	1.36475	1.36332
298.15 K, x1 = 0.9547	–	–	–	–	1.36596	1.36587	1.36459	1.3643	1.36289
298.15 K, x1 = 0.973	–	–	–	–	1.3656	1.36557	1.3643	1.364	1.36258
298.15 K, x1 = 0.9771	–	–	–	–	1.36557	1.36551	1.36423	1.36393	1.36281
298.15 K, x1 = 1	–	–	–	–	1.36535	1.3653	1.36402	1.36373	1.36237
303.15 K, x1 = 0.0277	1.38362	1.3806	1.37718	1.37435	1.37285	1.37279	1.37149	1.37119	1.36973
303.15 K, x1 = 0.0507	1.38359	1.38056	1.37714	1.3743	1.3728	1.37274	1.37145	1.37115	1.36969
303.15 K, x1 = 0.051	1.38351	1.38049	1.37707	1.37423	1.37273	1.37268	1.37138	1.37107	1.36962
303.15 K, x1 = 0.0717	1.38322	1.3802	1.37678	1.37395	1.37244	1.37238	1.37109	1.37079	1.36934
303.15 K, x1 = 0.1528	1.38258	1.37956	1.37614	1.37331	1.37181	1.37176	1.37047	1.37018	1.36872
303.15 K, x1 = 0.1553	1.38258	1.37956	1.37614	1.37331	1.37181	1.37176	1.37047	1.37018	1.36872
303.15 K, x1 = 0.1938	1.38229	1.37926	1.37584	1.37303	1.37153	1.37147	1.37018	1.36988	1.36843
303.15 K, x1 = 0.2029	1.38193	1.37892	1.37549	1.37266	1.37116	1.37111	1.36981	1.36952	1.36807
303.15 K, x1 = 0.245	1.38148	1.37846	1.37506	1.37223	1.37075	1.37069	1.36941	1.36911	1.36767
303.15 K, x1 = 0.297	1.38091	1.37798	1.37446	1.37163	1.37013	1.37008	1.3688	1.3685	1.36705
303.15 K, x1 = 0.2973	1.38111	1.37809	1.37467	1.37184	1.37036	1.37031	1.36902	1.36872	1.36727
303.15 K, x1 = 0.3068	1.38076	1.37775	1.37433	1.37149	1.37001	1.36996	1.36867	1.36837	1.36692
303.15 K, x1 = 0.398	1.37951	1.3765	1.37309	1.37025	1.36877	1.36872	1.36744	1.36715	1.3657
303.15 K, x1 = 0.4609	1.37885	1.37585	1.37245	1.3696	1.36818	1.36807	1.3668	1.3665	1.36501
303.15 K, x1 = 0.5434	1.37802	1.37503	1.37161	1.36879	1.36731	1.36726	1.36598	1.36567	1.36425
303.15 K, x1 = 0.6032	1.37738	1.3744	1.37096	1.36815	1.36667	1.36661	1.36533	1.36504	1.36362
303.15 K, x1 = 0.6371	1.37701	1.37401	1.37059	1.36779	1.36631	1.36626	1.36497	1.36466	1.36326
303.15 K, x1 = 0.701	1.37631	1.37333	1.36992	1.36711	1.36564	1.36559	1.36431	1.36401	1.36259
303.15 K, x1 = 0.754	1.37593	1.37295	1.36954	1.36673	1.36525	1.36519	1.36391	1.36362	1.36221
303.15 K, x1 = 0.791	1.37553	1.37254	1.36913	1.36633	1.36485	1.3648	1.36352	1.36323	1.36182
303.15 K, x1 = 0.8296	1.37518	1.37221	1.3688	1.36599	1.36453	1.36447	1.3632	1.3629	1.36148
303.15 K, x1 = 0.8864	1.37495	1.37197	1.36856	1.36576	1.3643	1.36424	1.36297	1.36267	1.36126
303.15 K, x1 = 0.8903	1.37451	1.37154	1.36813	1.36533	1.36386	1.36381	1.36254	1.36225	1.36083
303.15 K, x1 = 0.9113	1.37428	1.37131	1.36791	1.36511	1.36365	1.3636	1.36233	1.36203	1.36061
303.15 K, x1 = 0.9547	1.37382	1.37084	1.36747	1.36465	1.36319	1.36314	1.36187	1.36157	1.36016
303.15 K, x1 = 0.973	1.37347	1.3705	1.36711	1.3643	1.36285	1.36279	1.36153	1.36123	1.35983
303.15 K, x1 = 0.9771	1.37338	1.3704	1.36702	1.36421	1.36275	1.3627	1.36145	1.36115	1.35972
303.15 K, x1 = 1	1.37321	1.37022	1.36687	1.36406	1.3626	1.36255	1.3613	1.361	1.3596
